Assay results taken from the supplement of paper PMC10307832.

How the values were obtained:
Assay in all cases: relative viability (nuclei count vs DMSO), 5 days (fraction); higher = more cells survive
201T = system: 201T
Outline: (§1)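 Cells from lung cancer lines were seeded into 1536-well plates and, one day later, dosed by pin tool. Treatments were either a single drug or a fixed dose of an anchor drug with five library-drug doses (not always all listed) in √10 steps. After 5 days, nuclei were stained in a one-step fixation (final 0.05% Triton X-100, 1% formaldehyde, 1 ug/ml Hoechst) and counted on 4× images, and relative viability is the treated-to-vehicle nuclei ratio, as the median of duplicate plates.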

A-427 = system: A-427
Outline: as §1

COR-L23 = system: COR-L23
Outline: as §1

HARA = system: HARA
Outline: as §1

HCC-78 = system: HCC-78
Outline: as §1

LCLC-103H = system: LCLC-103H
Outline: as §1

LCLC-97TM1 = system: LCLC-97TM1
Outline: as §1

LK-2 = system: LK-2
Outline: as §1

LOU-NH91 = system: LOU-NH91
Outline: as §1

LXF-289 = system: LXF-289
Outline: as §1

NCI-H1650 = system: NCI-H1650
Outline: as §1

NCI-H1651 = system: NCI-H1651
Outline: as §1

NCI-H1793 = system: NCI-H1793
Outline: as §1

NCI-H2347 = system: NCI-H2347
Outline: as §1

NCI-H23 = system: NCI-H23
Outline: as §1

NCI-H2405 = system: NCI-H2405
Outline: as §1

NCI-H520 = system: NCI-H520
Outline: as §1

NCI-H647 = system: NCI-H647
Outline: as §1

NCI-H838 = system: NCI-H838
Outline: as §1

PC-3 [JPC-3] = system: PC-3 [JPC-3]
Outline: as §1

RERF-LC-KJ = system: RERF-LC-KJ
Outline: as §1

UMC-11 = system: UMC-11
Outline: as §1

CCNC(=O)c1noc(-c2cc(C(C)C)c(O)cc2O)c1-c1ccc(CN2CCOCC2)cc1 [Luminespib] + COc1cc2c(Oc3ccc(NC(=O)C4(C(=O)Nc5ccc(F)cc5)CC4)cc3F)ccnc2cc1OCCCN1CCOCC1 [Foretinib] (partner 0.25 µM)
relative viability (201T; first compound 0.002 µM): 1.06
relative viability (201T; first compound 0.006325 µM): 1.07
relative viability (201T; first compound 0.02 µM): 1.08
relative viability (201T; first compound 0.06325 µM): 0.173
relative viability (201T; first compound 0.2 µM): 0.159
relative viability (A-427; first compound 0.002 µM): 1.14
relative viability (A-427; first compound 0.006325 µM): 0.969
relative viability (A-427; first compound 0.02 µM): 0.84
relative viability (A-427; first compound 0.06325 µM): 1.06
relative viability (A-427; first compound 0.2 µM): 1.1
relative viability (COR-L23; first compound 0.002 µM): 1.06
relative viability (COR-L23; first compound 0.006325 µM): 0.894
relative viability (COR-L23; first compound 0.02 µM): 1.12
relative viability (COR-L23; first compound 0.06325 µM): 0.124
relative viability (COR-L23; first compound 0.2 µM): 0.105
relative viability (HARA; first compound 0.002 µM): 1.09
relative viability (HARA; first compound 0.006325 µM): 0.728
relative viability (HARA; first compound 0.02 µM): 1.08
relative viability (HARA; first compound 0.06325 µM): 0.922
relative viability (HARA; first compound 0.2 µM): 0.785
relative viability (HCC-78; first compound 0.002 µM): 0.627
relative viability (HCC-78; first compound 0.006325 µM): 0.593
relative viability (HCC-78; first compound 0.06325 µM): 0.609
relative viability (HCC-78; first compound 0.2 µM): 0.598
relative viability (LCLC-103H; first compound 0.002 µM): 0.826
relative viability (LCLC-103H; first compound 0.006325 µM): 0.778
relative viability (LCLC-103H; first compound 0.02 µM): 0.757
relative viability (LCLC-103H; first compound 0.06325 µM): 0.87
relative viability (LCLC-103H; first compound 0.2 µM): 0.362
relative viability (LCLC-97TM1; first compound 0.002 µM): 0.949
relative viability (LCLC-97TM1; first compound 0.006325 µM): 0.915
relative viability (LCLC-97TM1; first compound 0.02 µM): 0.935
relative viability (LCLC-97TM1; first compound 0.06325 µM): 0.952
relative viability (LCLC-97TM1; first compound 0.2 µM): 0.626
relative viability (LK-2; first compound 0.002 µM): 1.66
relative viability (LK-2; first compound 0.006325 µM): 1.44
relative viability (LK-2; first compound 0.02 µM): 0.604
relative viability (LK-2; first compound 0.06325 µM): 0.858
relative viability (LK-2; first compound 0.2 µM): 0.88
relative viability (LOU-NH91; first compound 0.002 µM): 0.922
relative viability (LOU-NH91; first compound 0.006325 µM): 0.95
relative viability (LOU-NH91; first compound 0.02 µM): 0.577
relative viability (LOU-NH91; first compound 0.06325 µM): 0.378
relative viability (LOU-NH91; first compound 0.2 µM): 0.298
relative viability (LXF-289; first compound 0.002 µM): 0.993
relative viability (LXF-289; first compound 0.006325 µM): 0.979
relative viability (LXF-289; first compound 0.02 µM): 1.2
relative viability (LXF-289; first compound 0.06325 µM): 0.547
relative viability (LXF-289; first compound 0.2 µM): 0.323
relative viability (NCI-H1650; first compound 0.002 µM): 1.26
relative viability (NCI-H1650; first compound 0.006325 µM): 1.17
relative viability (NCI-H1650; first compound 0.02 µM): 1.23
relative viability (NCI-H1650; first compound 0.06325 µM): 0.158
relative viability (NCI-H1650; first compound 0.2 µM): 0.164
relative viability (NCI-H1651; first compound 0.002 µM): 0.837
relative viability (NCI-H1651; first compound 0.006325 µM): 0.718
relative viability (NCI-H1651; first compound 0.02 µM): 0.826
relative viability (NCI-H1651; first compound 0.06325 µM): 0.309
relative viability (NCI-H1651; first compound 0.2 µM): 0.208
relative viability (NCI-H1793; first compound 0.002 µM): 0.739
relative viability (NCI-H1793; first compound 0.006325 µM): 0.892
relative viability (NCI-H1793; first compound 0.02 µM): 0.472
relative viability (NCI-H1793; first compound 0.06325 µM): 0.551
relative viability (NCI-H1793; first compound 0.2 µM): 0.189
relative viability (NCI-H2347; first compound 0.002 µM): 0.987
relative viability (NCI-H2347; first compound 0.006325 µM): 0.64
relative viability (NCI-H2347; first compound 0.02 µM): 0.59
relative viability (NCI-H2347; first compound 0.06325 µM): 0.922
relative viability (NCI-H2347; first compound 0.2 µM): 0.376
relative viability (NCI-H23; first compound 0.002 µM): 1.26
relative viability (NCI-H23; first compound 0.006325 µM): 1.03
relative viability (NCI-H23; first compound 0.02 µM): 0.858
relative viability (NCI-H23; first compound 0.06325 µM): 0.971
relative viability (NCI-H23; first compound 0.2 µM): 0.591
relative viability (NCI-H2405; first compound 0.002 µM): 1.08
relative viability (NCI-H2405; first compound 0.006325 µM): 0.852
relative viability (NCI-H2405; first compound 0.02 µM): 1
relative viability (NCI-H2405; first compound 0.06325 µM): 0.227
relative viability (NCI-H2405; first compound 0.2 µM): 0.2
relative viability (NCI-H520; first compound 0.002 µM): 1.09
relative viability (NCI-H520; first compound 0.006325 µM): 0.659
relative viability (NCI-H520; first compound 0.02 µM): 0.651
relative viability (NCI-H520; first compound 0.06325 µM): 0.147
relative viability (NCI-H520; first compound 0.2 µM): 0.162
relative viability (NCI-H647; first compound 0.002 µM): 1.32
relative viability (NCI-H647; first compound 0.006325 µM): 1.12
relative viability (NCI-H647; first compound 0.02 µM): 1.32
relative viability (NCI-H647; first compound 0.06325 µM): 0.131
relative viability (NCI-H647; first compound 0.2 µM): 0.0972
relative viability (NCI-H838; first compound 0.002 µM): 1.08
relative viability (NCI-H838; first compound 0.006325 µM): 1.06
relative viability (NCI-H838; first compound 0.02 µM): 1.07
relative viability (NCI-H838; first compound 0.06325 µM): 0.582
relative viability (NCI-H838; first compound 0.2 µM): 0.148
relative viability (PC-3 [JPC-3]; first compound 0.002 µM): 1.01
relative viability (PC-3 [JPC-3]; first compound 0.006325 µM): 0.938
relative viability (PC-3 [JPC-3]; first compound 0.02 µM): 1.18
relative viability (PC-3 [JPC-3]; first compound 0.06325 µM): 0.728
relative viability (PC-3 [JPC-3]; first compound 0.2 µM): 0.259
relative viability (RERF-LC-KJ; first compound 0.002 µM): 0.875
relative viability (RERF-LC-KJ; first compound 0.006325 µM): 0.832
relative viability (RERF-LC-KJ; first compound 0.02 µM): 0.71
relative viability (RERF-LC-KJ; first compound 0.06325 µM): 0.861
relative viability (RERF-LC-KJ; first compound 0.2 µM): 0.445
relative viability (UMC-11; first compound 0.002 µM): 1.14
relative viability (UMC-11; first compound 0.006325 µM): 0.982
relative viability (UMC-11; first compound 0.02 µM): 0.816
relative viability (UMC-11; first compound 0.06325 µM): 0.561
relative viability (UMC-11; first compound 0.2 µM): 0.169
